# In US10301630B2, “Methods and compositions for unsilencing imprinted genes” (The University of North Carolina at Chapel Hill, priority 2010, dated 2019):
# Where two headings read alike, the source gives them in different places.
# Legend:
# Assay type in all cases: cell-based, mouse
# paternal Ube3a-YFP mRNA = experiment: Real-time PCR of Ube3a-YFP transcript in cortical neurons; settings: 10 μM for 72 h
# Text: Total mRNA was isolated by guanidinium thiocyanate-phenol-chloroform extraction using the Trizol reagent (Invitrogen Inc.). Total mRNAs from samples were converted into cDNA and subjected to real-time PCR (RT-PCR) analyses to quantify Ube3a-YFP transcript levels using oliognucleotide primers against Ube3a (Forward sequence: [NT] (SEQ ID NO:1); reverse sequence: [NT] (SEQ ID NO:2)) and total transcript reads were normalized to Oaz1 (Forward sequence: [NT] (SEQ ID NO:3); reverse sequence: [NT] (SEQ ID NO:4)).
# [1] = test system: paternal Ube3a-YFP allele; experiment: High-content imaging of paternal Ube3a-YFP unsilencing in primary cortical neurons; settings: for EC50 / EC20 / maximal fold induction: Mus musculus; for EC20: Table 3, unsilencing the paternal allele of Ube3a-YFP in cultured neurons, 1 nM to 30 μM, read-out: Potency EC20; for unsilencing of paternal Ube3a-YFP in dose-response experiments: cultured Ube3a m+/pYFP neurons
# Procedure: In all screening assays, primary cortical neurons from Ube3a-YFP mice are isolated from embryonic day 15.5 animals, and the genotype of animals is determined to identify mice that encode the Ube3a-YFP transgene on the paternal allele. Freshly isolated cortical neurons are seeded into 384 well plates and cultured for 7 days. At day in vitro seven, screening is performed using multiple chemical libraries and compound concentration of 10 μM in 0.2% DMSO vehicle. After 72 h of drug exposure (run in quadruplicate wells), neurons are fixed with 4% para formaldehyde and processed for immunofluorescence using an anti-GFP-Alexa 488 conjugated antibody to enhance the signal of Ube3a-YFP in neurons. For image analyses, individual wells of immunofluorescence-processed plates are imaged fro DAPI and GFP fluorescence using the BD-Pathway 855 high-content imaging microscope. Ube3a-YFP fluorescence intensities in individual neurons are determined in drug-treated wells and normalized to 0.2% DMSO-treated (i.e., vehicle control) wells using custom written macros and algorithms using NIH Image J and Arrayscan Cell Profiler software programs. These image analyses enable masking of nuclei in individual neurons and determination of Ube3a-YFP fluorescence intensity in the nuclei of individual neurons.
# For these studies, DIV 7 primary neurons encoding paternal Ube3a-YFP are dose treated with hit compounds across seven orders of magnitude in full and half log molar concentrations (3 pM to 30 μM). Ube3a-YFP fluorescence intensities in living neurons are determined again by high-content imaging microscopy after 72 h treatments. The dose response results are analyzed by least squares sigmoidal dose-response curve fitting models using Graphpad Prism 5.0 (Graphpad Software, Inc.). The calculated EC50 values (potencies) and Y value top plateau (estimated efficacies or Emax) enable comparative analyses of the relative potency and efficacy of the identified compounds.
# Primary cortical neurons were isolated from E13.5-16.5 Ube3a-YFP mice. Screening was performed in quadruplicate at DIV7 using multiple chemical libraries and a compound concentration of 10 μM in 0.2% DMSO vehicle. After 72 h of drug exposure, neurons were fixed with 4% paraformaldehyde in PBS for 35 min, permeabilized with 0.3% Triton X-100 in PBS on ice for 30 min, and blocked by 5% goat serum with 0.1% Triton X-100 in PBS at room temperature for 1 hr. Cells were incubated with a rabbit polyclonal antibody to GFP (1:1000, Novus Biologicals, NB600-308) at room temperature for 1 hr and then incubated with Alexa Fluor 488 goat antibody to rabbit IgG (1:200, Invitrogen, A11008) and DAPI (1:10,000, Invitrogen, D-1306) at room temperature for 30 min. Individual wells of immunofluorescence-processed plates were imaged for DAPI or Alexa 488 fluorescence using the BD Pathway 855 high-content imaging microscope with a 488 excitation/515 long pass filter. Antibody-enhanced UBE3A-YFP fluorescence intensities were determined from individual neurons in drug-treated wells and normalized to neurons in wells treated with 0.2% DMSO (vehicle control). Analyses were performed with custom macros and algorithms using NIH Image J and Arrayscan Cell Profiler software programs (Thermo Scientific/Cellomics). These image analyses enabled masking of nuclei in individual neurons and determination of UBE3A-YFP fluorescence intensities in the nuclei of individual neurons (FIG. 16).
# DIV7 primary neurons from Ube3a^m+/pYFP mice were dose-treated for 72 h with topoisomerase I and II inhibitors in ten point dose-responses in full and half log molar concentrations (1 nM to 30 μM). Neurons were fixed, processed for immunofluorescence, and UBE3A-YFP fluorescence intensities were again determined by high-content imaging microscopy.
# Ube3a-YFP protein = experiment: Western blot of Ube3a-YFP protein in cortical neurons; settings: 10 μM for 72 h
# Procedure: Embryonic day 13.5 to 15.5 mice that encode the paternal Ube3a-YFP transgene or Ube3a^m−/p+ mice (i.e., AS model mice) were identified and primary cortical neuronal cultures were obtained and plated in 6 well plates. […] To assess Ube3a-YFP protein levels, 7.5 ug of total protein lysates from Ube3a-YFP neurons were separated by 8% SDS-polyacrylamide gel electrophoresis, proteins were transferred to nitrocellulose membranes and immunoblotting was performed using a rabbit anti-GFP antibody (Novus) and Alexa Fluor 680 goat anti-rabbit IgG (Invitrogen). Ube3a-YFP protein bands were visualized by a LiCOR system and to control for protein loading, Ube3a-YFP protein levels were normalized to actin level detected in each sample. To assess Ube3a protein level, immunoblotting was performed using rabbit anti-Ube3a antibody (Abeam) and Alexa Fluor 680 goat anti-rabbit IgG (Invitrogen).
# E13.5-15.5 primary cortical neurons from Ube3a-YFP, Ube3a-deficient, or wild-type mice were plated in 6-well plates. At DIV7, neurons were treated with drug or 0.1% DMSO for 72 h, and then total protein lysates were obtained by lysis buffer (1% Triton X-100, 5 mM EDTA, 0.15M NaCl, 10 mM Tris-HCl, pH 7.5, phosphatase inhibitor cocktails 1, protease inhibitor cocktail). […] To control for protein loading, UBE3A-YFP or UBE3A protein levels were normalized to actin levels detected in each sample.
# [2] = Cortical neurone, Table 1, unsilencing paternal Ube3a-YFP, cortical neurons, 72 h, read-out: EC50
# [3] = Primary cortical neuron, concentration-response curves, 72 hr, n=4, mean±SEM, read-out: EC50 for unsilencing paternal Ube3a-YFP (FIG. 7)
SMILES,paternal Ube3a-YFP mRNA level (RT-PCR) (paternal Ube3a-YFP mRNA),"unsilencing of paternal Ube3a-YFP in the primary screen ([1]; 10 μM for 72 hours, Ube3a m+/pYFP neurons)","EC50 [1, 2] [nM]","EC20 ([1]; Neuron, 72 h) [nM]","EC50 [1, 3] [nM]",unsilencing of paternal Ube3a-YFP in dose-response experiments ([1]; 72 h),paternal Ube3a-YFP protein level (immunoblot) (Ube3a-YFP protein),"maximal fold induction ([1]; Cortical neurone, 72 h, read-out: Efficacy Emax (fold over control))","maximal fold induction ([1]; Neuron, 72 h, read-out: Efficacy Emax (fold over vehicle))",relative potency versus irinotecan (FIG. 7) ([1]; unsilencing paternal Ube3a-YFP) [times],relative potency versus irinotecan (Example 16) ([1]; upregulation of paternal UBE3A-YFP in cultured neurons) [×]
CCc1c2c(nc3ccc(OC(=O)N4CCC(N5CCCCC5)CC4)cc13)-c1cc3c(c(=O)n1C2)COC(=O)[C@]3(O)CC [Irinotecan],significantly increased the level of paternal Ube3a-YFP mRNA,upregulated UBE3A-YFP fluorescence,994 ± 10,994 ± 13,996 ± 10,upregulate paternal UBE3A-YFP in a dose- and time-dependent manner,significantly increases paternal Ube3a-YFP protein levels,,,,
CC[C@@]1(O)C(=O)OCc2c1cc1n(c2=O)Cc2cc3c(CN(C)C)c(O)ccc3nc2-1 [Topotecan],,,54 ± 1.2,54 ± 3.4,55 ± 1.2,upregulate paternal UBE3A-YFP in a dose- and time-dependent manner,,2.25 ± 0.07,2.25 ± 0.05,~20,20
